According to US10358434B2, “2-(3-pyridinyl)-1H-benzimidazole derivative compound and medicament containing same” (NIHON MEDI-PHYSICS CO., LTD., priority 2014, dated 2019):

Columns and labels:
[1] = In vivo kinetics experiment (radioactivity distribution); design: species or system Wistar male rat; details: rat; for Adrenal gland/blood ratio of radioactivity accumulation / Adrenal gland/fat ratio of radioactivity accumulation / Adrenal gland/kidney ratio of radioactivity accumulation / Adrenal gland/liver ratio of radioactivity accumulation / Adrenal gland/muscle ratio of radioactivity accumulation / Adrenal gland/small intestine ratio of radioactivity accumulation / Radioactivity distribution Adrenal gland / Radioactivity distribution Bladder (including urine) / Radioactivity distribution Blood / Radioactivity distribution Fat / Radioactivity distribution Femur / Radioactivity distribution Heart / Radioactivity distribution Kidney / Radioactivity distribution Large intestine / Radioactivity distribution Liver / Radioactivity distribution Lung / Radioactivity distribution Muscle (lower limbs) / Radioactivity distribution Remaining whole body / Radioactivity distribution Small intestine / Radioactivity distribution Spleen / Radioactivity distribution Stomach / Radioactivity distribution Testis / Radioactivity distribution Whole brain: caudal vein
Experimental: Each of Compounds [^18F] 100, [^18F] 200, [^123I] 400, [^18F] 500, and [^123I] 601 to 610 obtained by the methods described in Examples 2, 4, 7, 9, 11, 13, 15, 17, 19, 21, 23, 25, 27, and 29, or [^123I] IMTO, was diluted with a physiological saline containing 1 w/v % ascorbic acid to prepare a solution to be administered. The above described compound (approximately 1 to 3.7 MBq) was injected into the caudal vein of a Wistar male rat (9 weeks old) under anesthesia with a mixed gas of isoflurane/air, and ten minutes after the injection, the rat was sacrificed by exsanguination. From the thus sacrificed rat, blood and organs (heart, lung, stomach, liver, spleen, small intestine, large intestine, kidney, bladder (including urine), muscle (lower limbs), brain, adrenal gland, testis, fat, femur, or thyroid gland) were excised, and the weights thereof were then measured. Thereafter, radioactivity was measured in the blood, the individual excised organs, and the remaining whole body. Further, 30 and 60 minutes after the administration, the same operations as those described above were carried out. […] The symbol “n” in Tables 9 to 23 indicates the number of rats used. In addition, Tables 9 to 23 also show the ratio of radioactivity accumulation in adrenal grand (% ID/g) to radioactivity accumulation in each of blood, liver, kidney, small intestine, muscle and fat (% ID/g).

[2] = Plasma stability evaluation (TLC analysis); type: in vitro ADME; details: 37° C., 60 minutes
Experimental: Evaluation was made using a heparin-treated normal human plasma pool (Kohjin Bio Co., Ltd.). Compounds [^18F] 100, [^18F] 200, [^123I] 400, [^18F] 500, and [^123I] 601 to 610 obtained by the methods shown in Examples 2, 4, 7, 9, 11, 13, 15, 17, 19, 21, 23, 25, 27, and 29 were each added to the aforementioned human plasma (5 mL), and the obtained mixture was then incubated at 37° C. for 60 minutes. Thereafter, the mixture was centrifuged with addition of methanol, so that a deproteinization treatment was carried out. Thereafter, stability was evaluated by TLC analysis. As TLC analysis conditions, the TLC analysis conditions applied upon the above described synthesis of each compound were applied.

[3] = system: human adrenal gland section expressing aldosterone-producing adenoma; assay: In vitro autoradiography using human adrenal adenoma; type: binding
Excerpt: From adrenal gland excised from a human patient for treatment of primary aldosteronism, a portion containing aldosterone-producing adenoma was removed and was then frozen. The frozen adrenal gland was embedded in an embedding agent for production of a frozen tissue section (Tissue-Tek O.C.T. Compound, Sakura Finetek Japan). Using a freezing microtome (CM3050S, Leica Microsystems), a 7-μm thin slice section, which is schematically shown in FIGS. 17(a) and 17(b), was produced, and was preserved at −20° C. before use. In FIGS. 17, 71a and 71b indicate aldosterone-producing adenomas, 72a and 72b indicate normal adrenal cortexes, and 73a and 73b indicate normal adrenal medullas. A 5-33 kBq/mL solution was prepared by adding a suitable amount of each of Compounds [^18F] 100, [^18F] 200, [^123I] 400, [^18F] 500, and [^123I] 601 to [^123I] 610, which were obtained by the methods described in Examples 2, 4, 7, 9, 11, 13, 15, 17, 19, 21, 23, 25, 27, and 29, or [^123I] IMTO to a phosphate-buffered physiological saline containing 1 w/v % bovine serum albumin (not containing fatty acid). The radioactivity concentration was measured using an autowell gamma system (ARC-7001, manufactured by Hitachi Aloka Medical, Ltd.). The section was immersed in the obtained sample solution for 10 minutes. For Compounds [^18F] 100, [^18F] 200, [^123I] 400, [^18F] 500, [^123I] 601 and [^123I] 602, the section shown in FIG. 17(a) was used, and for Compounds […] [^123I] IMTO, both sections shown in FIGS. 17(a) and (b) were used. Each sample solution was washed off, and the section was then exposed to an imaging plate (BAS-SR2040, manufactured by FUJIFILM Holdings Corporation) (IP) for 16-20 hours, and thereafter, an autoradiogram was obtained using a fluoro-image analyzer (FLA-7000, manufactured by FUJIFILM Holdings Corporation).
In order to quantitatively compare differences between images caused by ^123I and ^18F nuclides, a correction was made by calculating accumulation of radioactivity within the range of a region of interest (ROI) by means of integral calculation based on half-life, added radioactivity and IP contact time.
610. FIG. 18(b), FIG. 19(b), FIG. 20(b), FIG. 21(b), FIG. 22(a), FIG. 23(a), FIG. 24(a), FIG. 25(a), FIG. 26(a), FIG. 27(a), FIG. 28(a), FIG. 29(a), FIG. 30(a), and FIG. 31(a) each show an autoradiogram of [^123I] IMTO. […] 100, [^18F] 200, [^123I] 400, [^18F] 500, and [^123I] 601 to [^123I] […] The ROI having the same area as each other was established in a normal site and in a site in which aldosterone-producing adenoma had developed. Then, the PSL value (B1) indicating accumulation of radioactivity in the sites of normal adrenal cortexes 72a and 72b was compared with the PSL value (B2) indicating accumulation of radioactivity in the sites of aldosterone-producing adenomas 71a and 71b. In Table 7, the B1, B2 and B2/B1 values of [^18F] 100 indicate the mean values for the number of tests (n), respectively.

Fc1cc2nc(-c3cncc(Cn4ccnc4)c3)n(CC[18F])c2cc1Cl [[^18F] 100, 6-Chloro-5-fluoro-1-(2-[^18F]fluoroethyl)-2-[5-(imidazol-1-ylmethyl)pyridin-3-yl]benzimidazole]
accumulation of radioactivity in adrenal gland vs blood and peripheral tissues ([1]; Tables 9 to 22): high accumulation of radioactivity in adrenal gland was observed, in comparison to in blood and peripheral tissues
Adrenal gland/blood ratio of radioactivity accumulation ([1]; 10 min after administration): 137.96 ± 52.72
Adrenal gland/fat ratio of radioactivity accumulation ([1]; 10 min after administration): 141.33 ± 57.27
Adrenal gland/kidney ratio of radioactivity accumulation ([1]; 10 min after administration): 6.14 ± 2.01
Adrenal gland/liver ratio of radioactivity accumulation ([1]; 10 min after administration): 1.93 ± 0.69
Adrenal gland/muscle ratio of radioactivity accumulation ([1]; 10 min after administration): 63.25 ± 34.56
Adrenal gland/small intestine ratio of radioactivity accumulation ([1]; 10 min after administration): 9.89 ± 2.73
Radioactivity distribution Adrenal gland ([1]; 10 min after administration): 10.19 ± 3.35 % ID/g
Radioactivity distribution Bladder (including urine) ([1]; 10 min after administration): 0.22 ± 0.08 % ID/g
Radioactivity distribution Blood ([1]; 10 min after administration): 0.08 ± 0.01 % ID/g
Radioactivity distribution Fat ([1]; 10 min after administration): 0.08 ± 0.02 % ID/g
Radioactivity distribution Femur ([1]; 10 min after administration): 0.63 ± 0.08 % ID/g
Radioactivity distribution Heart ([1]; 10 min after administration): 0.32 ± 0.08 % ID/g
Radioactivity distribution Kidney ([1]; 10 min after administration): 1.70 ± 0.40 % ID/g
Radioactivity distribution Large intestine ([1]; 10 min after administration): 0.15 ± 0.02 % ID/g
Radioactivity distribution Liver ([1]; 10 min after administration): 5.39 ± 0.99 % ID/g
Radioactivity distribution Lung ([1]; 10 min after administration): 0.63 ± 0.08 % ID/g
Radioactivity distribution Muscle (lower limbs) ([1]; 10 min after administration): 0.23 ± 0.24 % ID/g
Radioactivity distribution Remaining whole body ([1]; 10 min after administration): 0.22 ± 0.03 % ID/g
Radioactivity distribution Small intestine ([1]; 10 min after administration): 1.03 ± 0.14 % ID/g
Radioactivity distribution Spleen ([1]; 10 min after administration): 3.85 ± 0.65 % ID/g
Radioactivity distribution Stomach ([1]; 10 min after administration): 0.56 ± 0.17 % ID/g
Radioactivity distribution Testis ([1]; 10 min after administration): 0.05 ± 0.01 % ID/g
Radioactivity distribution Whole brain ([1]; 10 min after administration): 0.01 ± 0.00 % ID/g
Adrenal gland/blood ratio of radioactivity accumulation ([1]; 30 min after administration): 249.08 ± 51.81
Adrenal gland/fat ratio of radioactivity accumulation ([1]; 30 min after administration): 352.33 ± 208.06
Adrenal gland/kidney ratio of radioactivity accumulation ([1]; 30 min after administration): 18.18 ± 4.58
Adrenal gland/liver ratio of radioactivity accumulation ([1]; 30 min after administration): 3.58 ± 0.82
Adrenal gland/muscle ratio of radioactivity accumulation ([1]; 30 min after administration): 179.35 ± 63.77
Adrenal gland/small intestine ratio of radioactivity accumulation ([1]; 30 min after administration): 11.12 ± 2.64
Radioactivity distribution Adrenal gland ([1]; 30 min after administration): 19.61 ± 4.29 % ID/g
Radioactivity distribution Bladder (including urine) ([1]; 30 min after administration): 1.17 ± 0.77 % ID/g
Radioactivity distribution Blood ([1]; 30 min after administration): 0.08 ± 0.01 % ID/g
Radioactivity distribution Fat ([1]; 30 min after administration): 0.07 ± 0.02 % ID/g
Radioactivity distribution Femur ([1]; 30 min after administration): 0.71 ± 0.18 % ID/g
Radioactivity distribution Heart ([1]; 30 min after administration): 0.27 ± 0.06 % ID/g
Radioactivity distribution Kidney ([1]; 30 min after administration): 1.10 ± 0.16 % ID/g
Radioactivity distribution Large intestine ([1]; 30 min after administration): 0.20 ± 0.02 % ID/g
Radioactivity distribution Liver ([1]; 30 min after administration): 5.55 ± 0.80 % ID/g
Radioactivity distribution Lung ([1]; 30 min after administration): 0.43 ± 0.07 % ID/g
Radioactivity distribution Muscle (lower limbs) ([1]; 30 min after administration): 0.12 ± 0.03 % ID/g
Radioactivity distribution Remaining whole body ([1]; 30 min after administration): 0.18 ± 0.03 % ID/g
Radioactivity distribution Small intestine ([1]; 30 min after administration): 1.78 ± 0.21 % ID/g
Radioactivity distribution Spleen ([1]; 30 min after administration): 4.57 ± 1.32 % ID/g
Radioactivity distribution Stomach ([1]; 30 min after administration): 0.73 ± 0.11 % ID/g
Radioactivity distribution Testis ([1]; 30 min after administration): 0.06 ± 0.01 % ID/g
Radioactivity distribution Whole brain ([1]; 30 min after administration): 0.01 ± 0.00 % ID/g
Adrenal gland/blood ratio of radioactivity accumulation ([1]; 60 min after administration): 247.32 ± 64.42
Adrenal gland/fat ratio of radioactivity accumulation ([1]; 60 min after administration): 397.01 ± 160.35
Adrenal gland/kidney ratio of radioactivity accumulation ([1]; 60 min after administration): 18.96 ± 4.83
Adrenal gland/liver ratio of radioactivity accumulation ([1]; 60 min after administration): 5.20 ± 1.19
Adrenal gland/muscle ratio of radioactivity accumulation ([1]; 60 min after administration): 236.89 ± 62.76
Adrenal gland/small intestine ratio of radioactivity accumulation ([1]; 60 min after administration): 7.66 ± 2.34
Radioactivity distribution Adrenal gland ([1]; 60 min after administration): 21.34 ± 5.24 % ID/g
Radioactivity distribution Bladder (including urine) ([1]; 60 min after administration): 2.41 ± 0.97 % ID/g
Radioactivity distribution Blood ([1]; 60 min after administration): 0.09 ± 0.01 % ID/g
Radioactivity distribution Fat ([1]; 60 min after administration): 0.06 ± 0.03 % ID/g
Radioactivity distribution Femur ([1]; 60 min after administration): 0.77 ± 0.13 % ID/g
Radioactivity distribution Heart ([1]; 60 min after administration): 0.26 ± 0.03 % ID/g
Radioactivity distribution Kidney ([1]; 60 min after administration): 1.13 ± 0.17 % ID/g
Radioactivity distribution Large intestine ([1]; 60 min after administration): 0.38 ± 0.22 % ID/g
Radioactivity distribution Liver ([1]; 60 min after administration): 4.11 ± 0.66 % ID/g
Radioactivity distribution Lung ([1]; 60 min after administration): 0.45 ± 0.05 % ID/g
Radioactivity distribution Muscle (lower limbs) ([1]; 60 min after administration): 0.09 ± 0.01 % ID/g
Radioactivity distribution Remaining whole body ([1]; 60 min after administration): 0.18 ± 0.02 % ID/g
Radioactivity distribution Small intestine ([1]; 60 min after administration): 2.85 ± 0.37 % ID/g
Radioactivity distribution Spleen ([1]; 60 min after administration): 4.40 ± 1.15 % ID/g
Radioactivity distribution Stomach ([1]; 60 min after administration): 1.02 ± 0.19 % ID/g
Radioactivity distribution Testis ([1]; 60 min after administration): 0.08 ± 0.01 % ID/g
Radioactivity distribution Whole brain ([1]; 60 min after administration): 0.02 ± 0.00 % ID/g
stability in human plasma [2]: hardly metabolized and decomposed in the plasma
Radiochemical purity after incubation in human plasma ([2]; TLC analysis): 97%
accumulation of radioactivity in adrenal gland section (autoradiogram) ([3]; FIGS. 18 to 31): accumulation of radioactivity was selectively observed in a region in which aldosterone-producing adenoma had been pathologically observed
B2/B1 accumulation ratio ([3]; section of FIG. 17(a)): 5.08
B2 (PSL value, aldosterone-producing adenoma) ([3]; section of FIG. 17(a), site 71a): 16480
B1 (PSL value, normal adrenal cortex) ([3]; section of FIG. 17(a), site 72a): 3241
